One assay has as its target BRAF (V600E) (Homo sapiens (Human), UniProt P15056, V600E). In words: KINOMEscan competition binding assay (Kd). As to conditions: read-out: Kd Values Against MAPK Pathway Kinases: BRAF (V600E).
In a further assay the target is ERK1 (Homo sapiens (Human), UniProt P27361). In words: KINOMEscan competition binding assay (Kd). As to conditions: read-out: Kd Values Against MAPK Pathway Kinases: ERK1.
Another assay addresses BLK (Homo sapiens (Human), UniProt P51451). In words: Rabbit reticulocyte lysate assay (KinaseSeeker competition binding). The settings on record: read-out: IC50 Activity Levels Against SRC Family Kinases: BLK.
Another assay addresses CSK (Homo sapiens (Human), UniProt P41240). Described as above. As to conditions: at 1 μM.
The target in the next assay is FYN (Homo sapiens (Human), UniProt P06241). The description is as above. As to conditions: at 1 μM.
Another assay has as its target HCK (Homo sapiens (Human), UniProt P08631). Described as above. The settings on record: read-out: IC50 Activity Levels Against SRC Family Kinases: HCK.
The next assay concerns the target LCK (Homo sapiens (Human), UniProt P06239). The description is as above. The settings on record: read-out: IC50 Activity Levels Against SRC Family Kinases: LCK.
Another assay deals with LYN (Homo sapiens (Human), UniProt P07948). The description is as above. The settings on record: at 1 μM.
The next assay addresses SRC (Homo sapiens (Human), UniProt P12931). Described as above. The settings on record: read-out: IC50 Activity Levels Against SRC Family Kinases: SRC.

SMILES strings stand for the structures.

From patent US10844038B2, “1,2-dithiolane compounds useful in neuroprotection, autoimmune and cancer diseases and conditions” (SABILA BIOSCIENCES LLC, priority 2016, dated 2020) come the findings set out here.

As a reminder, the Kd is a measure of binding affinity in units of concentration. For orientation: IC50 means the concentration at which inhibition is half-maximal.

Sequence of FYN (P06241 whole entry): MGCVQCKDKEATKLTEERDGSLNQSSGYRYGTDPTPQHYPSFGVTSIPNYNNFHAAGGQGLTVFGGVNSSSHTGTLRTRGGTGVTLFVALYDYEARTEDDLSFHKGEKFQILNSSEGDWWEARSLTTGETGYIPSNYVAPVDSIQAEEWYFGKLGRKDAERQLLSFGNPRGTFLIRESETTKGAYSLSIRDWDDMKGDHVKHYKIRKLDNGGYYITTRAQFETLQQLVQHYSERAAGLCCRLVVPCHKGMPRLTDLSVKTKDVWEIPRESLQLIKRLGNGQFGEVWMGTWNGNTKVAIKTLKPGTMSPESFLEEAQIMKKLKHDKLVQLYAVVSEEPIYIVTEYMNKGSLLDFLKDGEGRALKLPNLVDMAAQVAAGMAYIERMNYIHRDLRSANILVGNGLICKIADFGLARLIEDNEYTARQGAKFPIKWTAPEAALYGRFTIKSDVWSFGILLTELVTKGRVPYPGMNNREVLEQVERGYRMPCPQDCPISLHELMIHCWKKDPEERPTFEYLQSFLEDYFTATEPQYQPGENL
Sequence of LCK (P06239 whole entry): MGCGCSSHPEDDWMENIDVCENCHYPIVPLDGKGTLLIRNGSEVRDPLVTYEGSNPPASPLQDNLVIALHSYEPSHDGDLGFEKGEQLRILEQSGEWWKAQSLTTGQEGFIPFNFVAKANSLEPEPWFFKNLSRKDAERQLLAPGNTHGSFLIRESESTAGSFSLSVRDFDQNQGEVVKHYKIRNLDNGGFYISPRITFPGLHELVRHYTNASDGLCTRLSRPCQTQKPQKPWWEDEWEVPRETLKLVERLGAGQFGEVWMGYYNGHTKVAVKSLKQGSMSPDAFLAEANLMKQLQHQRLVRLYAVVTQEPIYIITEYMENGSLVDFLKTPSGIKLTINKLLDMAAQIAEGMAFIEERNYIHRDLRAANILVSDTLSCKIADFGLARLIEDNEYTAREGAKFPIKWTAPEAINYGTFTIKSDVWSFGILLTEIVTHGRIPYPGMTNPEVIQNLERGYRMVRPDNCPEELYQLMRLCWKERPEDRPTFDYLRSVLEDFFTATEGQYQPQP
Sequence of BRAF (V600E) (P15056 whole entry V600E): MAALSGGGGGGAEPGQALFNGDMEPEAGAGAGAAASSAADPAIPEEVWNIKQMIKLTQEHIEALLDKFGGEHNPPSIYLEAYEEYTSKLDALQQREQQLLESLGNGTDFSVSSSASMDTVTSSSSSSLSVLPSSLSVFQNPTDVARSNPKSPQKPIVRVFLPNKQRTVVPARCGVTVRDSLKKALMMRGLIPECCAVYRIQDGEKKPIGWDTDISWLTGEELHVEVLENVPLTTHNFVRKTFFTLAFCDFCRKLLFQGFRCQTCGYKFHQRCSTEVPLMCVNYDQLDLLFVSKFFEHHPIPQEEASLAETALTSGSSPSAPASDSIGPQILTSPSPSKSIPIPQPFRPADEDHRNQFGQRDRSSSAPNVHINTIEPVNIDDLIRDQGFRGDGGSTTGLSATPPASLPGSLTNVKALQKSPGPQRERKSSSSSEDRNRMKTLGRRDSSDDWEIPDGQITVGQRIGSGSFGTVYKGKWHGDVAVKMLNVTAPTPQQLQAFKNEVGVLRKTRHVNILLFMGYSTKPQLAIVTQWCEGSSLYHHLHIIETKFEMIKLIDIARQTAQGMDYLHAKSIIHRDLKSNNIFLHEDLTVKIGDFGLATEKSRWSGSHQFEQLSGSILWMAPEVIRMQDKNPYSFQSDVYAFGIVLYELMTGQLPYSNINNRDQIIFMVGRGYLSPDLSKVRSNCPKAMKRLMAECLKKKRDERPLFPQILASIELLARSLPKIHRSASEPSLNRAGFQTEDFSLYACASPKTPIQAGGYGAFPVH
Sequence of CSK (P41240 whole entry): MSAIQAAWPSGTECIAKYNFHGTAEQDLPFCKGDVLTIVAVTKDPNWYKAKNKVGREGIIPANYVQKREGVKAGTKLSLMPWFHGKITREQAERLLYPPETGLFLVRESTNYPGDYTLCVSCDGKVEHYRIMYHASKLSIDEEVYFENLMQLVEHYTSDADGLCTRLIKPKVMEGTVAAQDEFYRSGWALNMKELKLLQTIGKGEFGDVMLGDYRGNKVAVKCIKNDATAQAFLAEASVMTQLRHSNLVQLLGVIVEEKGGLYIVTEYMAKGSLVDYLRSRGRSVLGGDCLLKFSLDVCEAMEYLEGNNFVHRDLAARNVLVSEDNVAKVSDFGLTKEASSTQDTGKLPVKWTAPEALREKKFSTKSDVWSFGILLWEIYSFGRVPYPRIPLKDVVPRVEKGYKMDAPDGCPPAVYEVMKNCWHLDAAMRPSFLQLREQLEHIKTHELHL
Sequence of HCK (P08631 whole entry): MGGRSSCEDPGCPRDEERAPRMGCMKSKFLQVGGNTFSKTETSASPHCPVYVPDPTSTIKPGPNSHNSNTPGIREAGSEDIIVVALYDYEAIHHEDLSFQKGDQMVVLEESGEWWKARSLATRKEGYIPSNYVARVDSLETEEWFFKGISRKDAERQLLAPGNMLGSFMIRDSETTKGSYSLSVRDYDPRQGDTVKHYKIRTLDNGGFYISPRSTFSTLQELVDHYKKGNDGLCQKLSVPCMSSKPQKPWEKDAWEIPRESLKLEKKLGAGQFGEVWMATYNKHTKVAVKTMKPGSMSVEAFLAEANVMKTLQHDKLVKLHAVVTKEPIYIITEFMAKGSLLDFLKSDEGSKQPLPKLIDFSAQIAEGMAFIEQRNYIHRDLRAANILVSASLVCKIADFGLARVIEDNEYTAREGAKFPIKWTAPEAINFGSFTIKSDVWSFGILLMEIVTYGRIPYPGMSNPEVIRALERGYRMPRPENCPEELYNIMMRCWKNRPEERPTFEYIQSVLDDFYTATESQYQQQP
Sequence of BLK (P51451 whole entry): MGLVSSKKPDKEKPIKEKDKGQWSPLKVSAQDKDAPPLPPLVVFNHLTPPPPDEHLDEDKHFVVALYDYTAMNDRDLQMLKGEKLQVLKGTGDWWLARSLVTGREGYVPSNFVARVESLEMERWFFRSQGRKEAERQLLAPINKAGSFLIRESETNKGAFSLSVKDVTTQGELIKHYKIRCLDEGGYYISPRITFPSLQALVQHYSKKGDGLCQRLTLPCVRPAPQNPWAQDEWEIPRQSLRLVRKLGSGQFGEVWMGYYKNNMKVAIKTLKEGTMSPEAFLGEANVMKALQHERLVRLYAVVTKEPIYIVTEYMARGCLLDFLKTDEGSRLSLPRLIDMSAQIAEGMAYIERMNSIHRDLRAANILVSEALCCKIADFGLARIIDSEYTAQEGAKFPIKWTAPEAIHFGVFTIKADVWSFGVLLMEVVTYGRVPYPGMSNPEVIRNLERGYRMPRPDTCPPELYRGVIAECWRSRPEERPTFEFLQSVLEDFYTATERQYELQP
Sequence of LYN (P07948 whole entry): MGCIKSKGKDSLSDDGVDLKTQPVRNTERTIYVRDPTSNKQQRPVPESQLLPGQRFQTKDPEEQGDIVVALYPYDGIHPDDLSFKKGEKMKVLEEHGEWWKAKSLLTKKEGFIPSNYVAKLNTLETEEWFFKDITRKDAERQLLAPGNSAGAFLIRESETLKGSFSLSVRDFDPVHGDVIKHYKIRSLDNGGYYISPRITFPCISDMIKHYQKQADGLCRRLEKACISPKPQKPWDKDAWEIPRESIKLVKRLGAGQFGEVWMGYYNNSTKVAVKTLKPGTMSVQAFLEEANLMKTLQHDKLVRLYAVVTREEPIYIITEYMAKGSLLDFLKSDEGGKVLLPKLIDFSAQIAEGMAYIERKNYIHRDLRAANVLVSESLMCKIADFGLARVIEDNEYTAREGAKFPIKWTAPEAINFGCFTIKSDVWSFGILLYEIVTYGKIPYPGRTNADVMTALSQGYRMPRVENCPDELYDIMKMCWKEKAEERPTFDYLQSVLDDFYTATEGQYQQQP
Sequence of ERK1 (P27361 whole entry): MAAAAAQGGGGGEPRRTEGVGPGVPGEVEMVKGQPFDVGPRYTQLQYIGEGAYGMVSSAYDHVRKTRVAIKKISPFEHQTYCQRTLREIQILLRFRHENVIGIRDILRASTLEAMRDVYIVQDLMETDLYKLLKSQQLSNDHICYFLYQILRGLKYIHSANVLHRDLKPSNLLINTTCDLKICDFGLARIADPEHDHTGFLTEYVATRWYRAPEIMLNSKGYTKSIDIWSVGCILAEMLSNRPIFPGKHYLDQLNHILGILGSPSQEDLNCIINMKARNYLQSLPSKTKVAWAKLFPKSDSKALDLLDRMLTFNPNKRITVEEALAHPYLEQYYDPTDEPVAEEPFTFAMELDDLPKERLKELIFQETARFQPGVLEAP
Sequence of SRC (P12931 whole entry, looked up): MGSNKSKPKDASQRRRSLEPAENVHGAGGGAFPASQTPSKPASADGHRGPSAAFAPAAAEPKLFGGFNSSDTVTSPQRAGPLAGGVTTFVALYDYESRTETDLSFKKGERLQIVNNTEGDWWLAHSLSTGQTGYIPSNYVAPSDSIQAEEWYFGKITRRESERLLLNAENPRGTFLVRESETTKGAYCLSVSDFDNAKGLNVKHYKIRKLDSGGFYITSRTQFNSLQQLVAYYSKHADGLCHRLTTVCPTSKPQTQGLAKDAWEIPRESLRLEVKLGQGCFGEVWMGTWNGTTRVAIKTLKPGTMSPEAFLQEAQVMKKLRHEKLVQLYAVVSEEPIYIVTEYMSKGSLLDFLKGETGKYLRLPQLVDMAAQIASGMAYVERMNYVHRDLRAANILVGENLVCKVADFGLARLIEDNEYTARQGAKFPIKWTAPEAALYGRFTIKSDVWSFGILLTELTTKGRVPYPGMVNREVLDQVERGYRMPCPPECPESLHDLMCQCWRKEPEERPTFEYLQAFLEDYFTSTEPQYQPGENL

On to `Nc1ncnc2c1c(-c1ccc(Oc3ccccc3)cc1)nn2C[C@H]1SSC[C@H]1O` [46 B.], for which the equilibrium dissociation constant (Kd) at BRAF (V600E) and at ERK1 was 1000 to 10000 nM in each case.

Turning to `Nc1ncnc2c1c(-c1ccc(Oc3ccccc3)cc1)nn2C[C@H]1SSC[C@@H]1O` [43 B.], the IC50 on BLK, on HCK, at LCK and at SRC was 100 to 999 nM in each case. Further, on CSK, the “% Inhibition Against SRC Family Kinases: CSK” value was found to be 70%. The “% Inhibition Against SRC Family Kinases: FYN” value at FYN was found to be 77%. Further, the “% Inhibition Against SRC Family Kinases: LYN” value at LYN came out at 57%.
